{"source": "patent US5670530A", "about": "“Anti-cancer composition comprising rhodacyanine compound and cyclodextrin” (Fuji Photo Film Co., Ltd., priority 1995, dated 1997)", "key": {"[1]": {"experiment": "Solubility of rhodacyanine compounds in human serum at 37° C."}, "human melanoma LOX": {"test_system": "human melanoma LOX", "experiment": "Survival of nude mice implanted with human melanoma LOX (Example 9)", "assay_type": "in vivo, human cells in nude mice"}, "[2]": {"experiment": "Solubility of Compounds 2, 4 and 5 in aqueous solution containing various cyclodextrin compounds (Example 4)", "assay_type": "physicochemical", "conditions": "for Solubility in water with cyclodextrin compounds: β-CD, HP-β-CD, γ-CD", "method": "(§1) Solutions of HP-β-CD in demineralized water having concentrations varying from 0 w/v % to 45 w/v % were prepared as described in EXAMPLE 1. […] The results obtained are shown graphically in FIGS. 1 and 2.\nAqueous solutions of β-CD, HP-β-CD and γ-CD were prepared and solubility of Compounds 2, 4 and 5 in each of the aqueous solutions having the concentration varing as shown in TABLE 2 was determined as described in EXAMPLE 2. For the purpose of comparison, solubility of Compounds 2, 4 and 5 in water was also determined."}, "[3]": {"experiment": "Solubility of Compound 1 in aqueous solution containing various solubilizers (Example 1)", "assay_type": "physicochemical", "conditions": "for solubility at 24 h: 25° C.", "method": "Solubilizers, β-CD, polyethylene glycol 400 and Pluronic F60, were added to demineralized water respectively to prepare solutions having concentrations shown in TABLE 1. […] The test tubes were fixed in thermostatic bath controlled at 25° C. and allowed to stand for 24 hours."}, "[4]": {"experiment": "Solubility of Compound 1 in rat serum with HP-β-CD (Example 2)", "assay_type": "physicochemical", "conditions": "HP-β-CD 0 to 45 w/v %, 30 minutes, 25° C.", "method": "as §1"}, "[5]": {"experiment": "Solubility of Compound 1 in fetal calf serum with HP-β-CD (Example 2)", "assay_type": "physicochemical", "conditions": "HP-β-CD 0 to 45 w/v %, 30 minutes, 25° C.", "method": "as §1"}, "[6]": {"experiment": "Solubility of Compound 1 in aqueous solutions of β-CD, HP-β-CD and γ-CD (Example 3)", "assay_type": "physicochemical"}, "[7]": {"experiment": "Precipitation of Compound 1 in rat blood with HP-β-CD (Example 5)", "assay_type": "physicochemical", "conditions": "HP-β-CD concentration increases"}, "[8]": {"test_system": "human colon carcinoma cells (CX-1)", "experiment": "Tumor inhibition in nude mice implanted with human colon carcinoma cells CX-1 (Example 8)", "assay_type": "in vivo, human cells in nude mouse (Swiss nu/nu)", "conditions": "for Tumor Inhibition: day 1, 2, 4, 6, 7, 8, 9", "method": "2,500,000 human colon carcinoma cells (CX-1) were injected subcutaneously into each nude mouse (Swiss nu/nu) obtained from Taconic Farm and the mice were randomly allocated into a control group (five mice) and treatment groups (five mice per group).\nThe anti-cancer compositions containing HP-β-CD were prepared using the following method. HP-β-CD (45 g) was mixed with 100 ml of sterilized, double distilled water and stirred for four hours. Each of the compounds to be tested (20 mg) was mixed with 10 ml of HP-β-CD solution and sonicated for 60 minutes in the dark. This solution was then diluted in 5% glucose to yield a final compound concentration of 0.5 mg/ml, and further sonicated for 60 minutes in the dark to assure that the compound was completely dissolved. The anti-cancer compositions not containing HP-β-CD were also prepared using the same method except that 5% glucose solution was used instead of the HP-β-CD solution.\nThe control group received an equivalent volume of 5% glucose solution.\nWhen the growth of tumors in the control group reached the exponential phase and the size of the tumor was palpable (usually 20 to 30 days after tumor implantation), the experiments were terminated. Tumors in each mouse were excised and weighed using an analytical balance. Total tumor weight in each group from five mice was calculated. Per cent tumor inhibition between the treated group and the control group was then calculated for each group."}}}
{"smiles": "CCn1c(=Cc2oc3ccccc3[n+]2CC)sc(=C2Sc3ccccc3N2C)c1=O", "note": "[drawing 17]", "values": [{"measurement": "solubility", "setting": "[1]", "result": "< 100", "unit": "µg/mL"}]}
{"smiles": "CCN1C(=CC=c2sc(=CC3=[N+](CC)CCS3)n(CC)c2=O)C=Cc2ccccc21", "note": "[drawing 16]", "values": [{"measurement": "solubility", "setting": "[1]", "result": "< 100", "unit": "µg/mL"}]}
{"smiles": "CCn1c(=Cc2sc3c4ccccc4ccc3[n+]2CC)sc(=CC=C2Sc3ccc4ccccc4c3N2C)c1=O", "note": "[drawing 21]", "values": [{"measurement": "solubility", "setting": "[1]", "result": "< 100", "unit": "µg/mL"}]}
{"smiles": "CCn1c(=CC2=[N+](CC)CCS2)sc(=C2Sc3ccccc3N2C)c1=O", "values": [{"measurement": "solubility", "setting": "[1]", "result": "> 1000", "unit": "µg/mL"}]}
{"smiles": "CCn1c(=Cc2scc(C)[n+]2CC)sc(=C2Sc3ccccc3N2C)c1=O", "values": [{"measurement": "solubility", "setting": "[1]", "result": "> 1000", "unit": "µg/mL"}]}
{"smiles": "CCn1c(=Cc2oc3ccccc3[n+]2CC)sc(=C2Sc3ccccc3N2C)c1=O", "note": "[Compound 7]", "values": [{"measurement": "T/C", "setting": "human melanoma LOX; 10 mg/kg i.p., HP-β-CD added, day 1, 4, 8, 12, 16, 21, 25", "result": 200, "unit": "%"}, {"measurement": "T/C", "setting": "human melanoma LOX; 10 mg/kg i.p., HP-β-CD non-added, day 1, 4, 8, 12, 16, 21, 25", "result": 175, "unit": "%"}]}
{"smiles": "CCN1C(=CC=c2sc(=Cc3cc[n+](CC)c4ccccc34)n(CC)c2=O)C=Cc2ccccc21", "note": "[drawing 20]", "values": [{"measurement": "solubility", "setting": "[1]", "result": "< 100", "unit": "µg/mL"}]}
{"smiles": "CCn1c(=Cc2sc3c4ccccc4ccc3[n+]2CC)sc(=C2Sc3ccc4ccccc4c3N2C)c1=O", "note": "[Compound 5]", "values": [{"measurement": "Solubility in water", "setting": "[2]", "result": "~ 0 mM/dl"}, {"measurement": "Solubility in water with cyclodextrin compounds", "setting": "[2]", "result": "improved by all of the cyclodextrin compounds used"}, {"measurement": "Solubility in aqueous solution of CD", "setting": "[2]; γ-CD 1.0 mM/dl", "result": 0.02, "unit": "mM/dl"}]}
{"smiles": "CN1C(=c2sc(=Cc3oc4ccccc4[n+]3C)n(C)c2=O)Sc2ccccc21", "values": [{"measurement": "solubility", "setting": "[1]", "result": 300, "unit": "µg/mL"}]}
{"smiles": "CCn1c(=Cc2sc3c4ccccc4ccc3[n+]2CC)sc(=CC=C2Sc3ccc4ccccc4c3N2C)c1=O", "note": "[Compound 1]", "values": [{"measurement": "solubility at 24 h", "setting": "[3]; water only", "result": 1860, "unit": "µg/mL"}, {"measurement": "solubility at 24 h", "setting": "[3]; water, peg 400 50%, organic solvent or mixture, Polyethylene glycol 400, 50 w/v %", "result": 870, "unit": "µg/mL"}, {"measurement": "solubility at 24 h", "setting": "[3]; water, Pluronic F60 0.02 w/v %", "result": 3230, "unit": "µg/mL"}, {"measurement": "solubility at 24 h", "setting": "[3]; water, Pluronic F60 0.2 w/v %", "result": 3130, "unit": "µg/mL"}, {"measurement": "solubility at 24 h", "setting": "[3]; water, β-CD 1.5 w/v %", "result": 8170, "unit": "µg/mL"}, {"measurement": "increase of solubility in water by β-CD", "setting": "[3]; β-CD vs compound itself in water", "result": 4.4, "unit": "times"}, {"measurement": "Compound 1 dissolved in serum (FIGS. 1 and 2)", "setting": "[4]", "result": "much dissolved in the serums, depending on the increase in HP-β-CD concentration"}, {"measurement": "Compound 1 dissolved in serum (FIGS. 1 and 2)", "setting": "[5]", "result": "much dissolved in the serums, depending on the increase in HP-β-CD concentration"}, {"measurement": "Solubility in water with cyclodextrins (FIG. 3)", "setting": "[6]; β-CD, HP-β-CD and γ-CD", "result": "all cyclodextrin compounds used improve solubility of Compound 1 in water"}, {"measurement": "Solubility in water with γ-CD (FIG. 3)", "setting": "[6]; γ-CD", "result": "γ-CD greatly improves the solubility"}, {"measurement": "precipitation of Compound 1 in blood", "setting": "[7]", "result": "effectively inhibited"}, {"measurement": "Tumor Inhibition", "setting": "[8]; 2 mg/kg i.p., HP-β-CD added", "result": 48.8, "unit": "%"}, {"measurement": "Tumor Inhibition", "setting": "[8]; 2 mg/kg i.p., HP-β-CD non-added", "result": 29.1, "unit": "%"}, {"measurement": "Tumor Inhibition", "setting": "[8]; 4 mg/kg i.p., HP-β-CD added", "result": 30.2, "unit": "%"}, {"measurement": "Tumor Inhibition", "setting": "[8]; 4 mg/kg i.p., HP-β-CD non-added", "result": 20.9, "unit": "%"}, {"measurement": "tumor inhibition, with vs without HP-β-CD", "setting": "[8]; solution containing HP-β-CD vs no HP-β-CD", "result": "higher tumor inhibition than that containing no HP-β-CD"}]}
{"smiles": "CCN1C(=CC=c2sc(=CC3=[N+](CC)CCS3)n(CC)c2=O)C=Cc2ccccc21", "note": "[Compound 2]", "values": [{"measurement": "Solubility in water", "setting": "[2]", "result": 0.03, "unit": "mM/dl"}, {"measurement": "Solubility in aqueous solution of CD", "setting": "[2]; β-CD 0.80 mM/dl", "result": 0.55, "unit": "mM/dl"}, {"measurement": "Solubility in water with cyclodextrin compounds", "setting": "[2]", "result": "improved by all of the cyclodextrin compounds used"}]}
{"smiles": "CCN1C(=CC=c2sc(=Cc3cc[n+](CC)c4ccccc34)n(CC)c2=O)C=Cc2ccccc21", "note": "[Compound 8]", "values": [{"measurement": "T/C", "setting": "human melanoma LOX; 20 mg/kg i.p., HP-β-CD added, day 1, 2, 3, 4, 8, 9", "result": 227, "unit": "%"}, {"measurement": "T/C", "setting": "human melanoma LOX; 20 mg/kg i.p., HP-β-CD non-added, day 1, 2, 3, 4, 8, 9", "result": 183, "unit": "%"}]}
{"smiles": "CCn1c(=C2CCC[n+]3c2sc2ccccc23)sc(=C2Sc3ccccc3N2C)c1=O", "note": "[Compound 4]", "values": [{"measurement": "Solubility in aqueous solution of CD", "setting": "[2]; HP-β-CD 4.2 mM/dl", "result": 0.03, "unit": "mM/dl"}, {"measurement": "Solubility in water", "setting": "[2]", "result": 0.001, "unit": "mM/dl"}, {"measurement": "Solubility in water with cyclodextrin compounds", "setting": "[2]", "result": "improved by all of the cyclodextrin compounds used"}]}
{"smiles": "CCn1c(=CC2=[N+](CC)CCS2)sc(=C2SC3=C(CCCC3)N2C)c1=O", "values": [{"measurement": "solubility", "setting": "[1]", "result": "> 1000", "unit": "µg/mL"}]}
{"smiles": "CCn1c(=Cc2sc3ccccc3[n+]2CC)sc(=CC=C2SC=C(C)N2C)c1=O", "values": [{"measurement": "solubility", "setting": "[1]", "result": "< 1000", "unit": "µg/mL"}]}
{"smiles": "CCn1c(=Cc2oc3c4ccccc4ccc3[n+]2CC)sc(=C2Sc3ccccc3N2C)c1=O", "values": [{"measurement": "solubility", "setting": "[1]", "result": "< 100", "unit": "µg/mL"}]}
